Data set [1] has as its target T1, Poly [ADP-ribose] polymerase tankyrase-2 (Homo sapiens, UniProt Q9H2K2).
T1 sequence (Q9H2K2 whole entry): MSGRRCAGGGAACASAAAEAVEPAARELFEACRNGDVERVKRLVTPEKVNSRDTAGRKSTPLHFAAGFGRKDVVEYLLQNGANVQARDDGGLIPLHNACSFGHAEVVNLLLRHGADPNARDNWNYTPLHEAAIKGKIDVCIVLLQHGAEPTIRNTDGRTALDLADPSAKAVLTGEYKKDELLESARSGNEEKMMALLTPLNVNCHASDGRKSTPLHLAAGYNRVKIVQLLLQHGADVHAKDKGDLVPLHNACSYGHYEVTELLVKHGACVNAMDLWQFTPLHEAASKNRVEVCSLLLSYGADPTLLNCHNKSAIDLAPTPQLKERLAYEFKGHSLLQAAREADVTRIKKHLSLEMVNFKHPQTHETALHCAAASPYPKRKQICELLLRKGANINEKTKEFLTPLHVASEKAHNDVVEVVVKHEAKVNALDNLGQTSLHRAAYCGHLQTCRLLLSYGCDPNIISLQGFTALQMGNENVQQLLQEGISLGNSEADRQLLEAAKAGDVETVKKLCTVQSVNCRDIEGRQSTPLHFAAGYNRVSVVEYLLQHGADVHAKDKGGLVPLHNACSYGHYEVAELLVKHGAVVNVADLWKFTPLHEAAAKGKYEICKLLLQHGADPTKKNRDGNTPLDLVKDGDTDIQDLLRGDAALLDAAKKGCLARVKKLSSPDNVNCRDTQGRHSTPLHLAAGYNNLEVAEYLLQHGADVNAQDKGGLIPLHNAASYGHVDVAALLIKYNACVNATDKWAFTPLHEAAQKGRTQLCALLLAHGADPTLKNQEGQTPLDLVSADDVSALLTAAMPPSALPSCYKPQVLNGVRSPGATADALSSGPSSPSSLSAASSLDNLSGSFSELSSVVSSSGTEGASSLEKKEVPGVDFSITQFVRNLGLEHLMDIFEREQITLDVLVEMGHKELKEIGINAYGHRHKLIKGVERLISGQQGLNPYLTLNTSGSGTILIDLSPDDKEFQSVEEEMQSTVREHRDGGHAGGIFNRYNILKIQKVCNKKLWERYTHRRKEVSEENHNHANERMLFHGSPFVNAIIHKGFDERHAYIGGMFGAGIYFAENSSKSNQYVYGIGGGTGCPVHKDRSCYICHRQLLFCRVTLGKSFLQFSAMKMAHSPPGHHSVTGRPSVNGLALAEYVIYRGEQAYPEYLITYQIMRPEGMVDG
Description: Inhibition of human TNKS2 (956 to 1161 and 873 to 1161) using 500 nM NAD substrate after 20 mins incubation by fluorescence assay

The target in data set [2] is Protein mono-ADP-ribosyltransferase PARP4 (Homo sapiens, UniProt Q9UKK3). Kind of data set: Inhibition of human ARTD4 (250 to 565) using 500 nM NAD substrate after 2.5 hrs incubation.
Sequence of Protein mono-ADP-ribosyltransferase PARP4 (Q9UKK3 whole entry): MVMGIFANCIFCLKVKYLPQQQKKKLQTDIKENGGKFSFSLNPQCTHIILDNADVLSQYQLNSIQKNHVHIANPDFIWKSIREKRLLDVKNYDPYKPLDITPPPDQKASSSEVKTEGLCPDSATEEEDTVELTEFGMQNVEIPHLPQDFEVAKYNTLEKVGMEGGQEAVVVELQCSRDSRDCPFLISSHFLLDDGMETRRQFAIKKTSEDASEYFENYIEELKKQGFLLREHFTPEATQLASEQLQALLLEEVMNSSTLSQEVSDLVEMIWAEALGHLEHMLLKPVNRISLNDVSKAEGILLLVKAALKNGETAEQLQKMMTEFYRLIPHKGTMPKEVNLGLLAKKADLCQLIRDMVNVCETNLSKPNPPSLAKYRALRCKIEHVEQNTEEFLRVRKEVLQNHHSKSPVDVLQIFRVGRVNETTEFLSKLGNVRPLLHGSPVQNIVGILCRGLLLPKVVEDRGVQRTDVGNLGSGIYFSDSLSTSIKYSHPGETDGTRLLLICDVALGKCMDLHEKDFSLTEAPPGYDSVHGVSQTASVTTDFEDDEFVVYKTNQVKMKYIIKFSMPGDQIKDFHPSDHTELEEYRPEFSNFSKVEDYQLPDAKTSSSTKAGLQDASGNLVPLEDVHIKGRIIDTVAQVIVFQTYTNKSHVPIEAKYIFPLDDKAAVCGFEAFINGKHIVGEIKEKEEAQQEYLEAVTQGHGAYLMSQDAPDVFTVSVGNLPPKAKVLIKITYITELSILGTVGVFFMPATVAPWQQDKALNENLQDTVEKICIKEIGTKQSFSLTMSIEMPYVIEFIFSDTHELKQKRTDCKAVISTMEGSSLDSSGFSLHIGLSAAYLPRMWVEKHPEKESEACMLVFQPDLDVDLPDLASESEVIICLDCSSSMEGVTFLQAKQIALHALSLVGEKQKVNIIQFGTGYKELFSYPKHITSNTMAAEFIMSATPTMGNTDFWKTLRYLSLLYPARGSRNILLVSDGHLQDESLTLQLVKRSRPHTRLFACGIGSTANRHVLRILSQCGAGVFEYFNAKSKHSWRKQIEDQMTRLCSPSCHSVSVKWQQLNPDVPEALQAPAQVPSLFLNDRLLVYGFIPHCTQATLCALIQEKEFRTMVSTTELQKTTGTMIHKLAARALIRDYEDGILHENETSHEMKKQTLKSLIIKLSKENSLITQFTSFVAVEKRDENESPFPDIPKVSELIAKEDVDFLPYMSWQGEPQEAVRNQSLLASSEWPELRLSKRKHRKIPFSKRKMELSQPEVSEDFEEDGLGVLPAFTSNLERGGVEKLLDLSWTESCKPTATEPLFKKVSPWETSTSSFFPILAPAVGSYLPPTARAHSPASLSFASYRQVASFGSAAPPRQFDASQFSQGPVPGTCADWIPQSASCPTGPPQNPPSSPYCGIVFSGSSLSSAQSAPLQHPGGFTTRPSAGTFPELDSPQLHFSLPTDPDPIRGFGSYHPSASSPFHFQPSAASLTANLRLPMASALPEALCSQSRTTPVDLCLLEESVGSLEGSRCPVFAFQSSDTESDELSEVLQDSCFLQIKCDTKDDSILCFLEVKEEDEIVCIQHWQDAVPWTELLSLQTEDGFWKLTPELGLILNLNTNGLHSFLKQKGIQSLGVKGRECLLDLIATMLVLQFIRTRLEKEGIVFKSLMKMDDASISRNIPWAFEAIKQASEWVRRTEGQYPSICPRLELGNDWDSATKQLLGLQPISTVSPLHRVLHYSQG
In data set [3] the target is Poly [ADP-ribose] polymerase 2 (Homo sapiens, UniProt Q9UGN5). Description: Inhibition of full-length human ARTD2 using 500 nM NAD substrate after 3 hrs incubation.
Sequence of Poly [ADP-ribose] polymerase 2 (Q9UGN5 whole entry): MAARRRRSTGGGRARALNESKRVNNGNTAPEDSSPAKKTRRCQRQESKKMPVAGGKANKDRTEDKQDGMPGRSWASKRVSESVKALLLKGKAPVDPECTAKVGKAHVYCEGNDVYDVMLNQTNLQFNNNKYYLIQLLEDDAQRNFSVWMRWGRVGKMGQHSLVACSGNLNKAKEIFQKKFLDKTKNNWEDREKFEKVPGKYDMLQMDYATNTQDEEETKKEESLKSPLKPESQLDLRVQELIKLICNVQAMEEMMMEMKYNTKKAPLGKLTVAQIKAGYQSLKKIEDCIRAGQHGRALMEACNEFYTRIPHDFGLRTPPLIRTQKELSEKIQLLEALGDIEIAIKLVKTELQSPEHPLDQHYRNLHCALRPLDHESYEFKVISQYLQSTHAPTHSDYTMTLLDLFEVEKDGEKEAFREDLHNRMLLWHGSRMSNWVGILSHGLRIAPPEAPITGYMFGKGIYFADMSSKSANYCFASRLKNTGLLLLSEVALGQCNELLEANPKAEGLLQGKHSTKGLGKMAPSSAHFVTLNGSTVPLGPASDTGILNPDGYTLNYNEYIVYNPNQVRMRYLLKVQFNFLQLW
In data set [4] the target is T2, Poly [ADP-ribose] polymerase tankyrase-1 (Homo sapiens, UniProt O95271).
T2 sequence (O95271 whole entry): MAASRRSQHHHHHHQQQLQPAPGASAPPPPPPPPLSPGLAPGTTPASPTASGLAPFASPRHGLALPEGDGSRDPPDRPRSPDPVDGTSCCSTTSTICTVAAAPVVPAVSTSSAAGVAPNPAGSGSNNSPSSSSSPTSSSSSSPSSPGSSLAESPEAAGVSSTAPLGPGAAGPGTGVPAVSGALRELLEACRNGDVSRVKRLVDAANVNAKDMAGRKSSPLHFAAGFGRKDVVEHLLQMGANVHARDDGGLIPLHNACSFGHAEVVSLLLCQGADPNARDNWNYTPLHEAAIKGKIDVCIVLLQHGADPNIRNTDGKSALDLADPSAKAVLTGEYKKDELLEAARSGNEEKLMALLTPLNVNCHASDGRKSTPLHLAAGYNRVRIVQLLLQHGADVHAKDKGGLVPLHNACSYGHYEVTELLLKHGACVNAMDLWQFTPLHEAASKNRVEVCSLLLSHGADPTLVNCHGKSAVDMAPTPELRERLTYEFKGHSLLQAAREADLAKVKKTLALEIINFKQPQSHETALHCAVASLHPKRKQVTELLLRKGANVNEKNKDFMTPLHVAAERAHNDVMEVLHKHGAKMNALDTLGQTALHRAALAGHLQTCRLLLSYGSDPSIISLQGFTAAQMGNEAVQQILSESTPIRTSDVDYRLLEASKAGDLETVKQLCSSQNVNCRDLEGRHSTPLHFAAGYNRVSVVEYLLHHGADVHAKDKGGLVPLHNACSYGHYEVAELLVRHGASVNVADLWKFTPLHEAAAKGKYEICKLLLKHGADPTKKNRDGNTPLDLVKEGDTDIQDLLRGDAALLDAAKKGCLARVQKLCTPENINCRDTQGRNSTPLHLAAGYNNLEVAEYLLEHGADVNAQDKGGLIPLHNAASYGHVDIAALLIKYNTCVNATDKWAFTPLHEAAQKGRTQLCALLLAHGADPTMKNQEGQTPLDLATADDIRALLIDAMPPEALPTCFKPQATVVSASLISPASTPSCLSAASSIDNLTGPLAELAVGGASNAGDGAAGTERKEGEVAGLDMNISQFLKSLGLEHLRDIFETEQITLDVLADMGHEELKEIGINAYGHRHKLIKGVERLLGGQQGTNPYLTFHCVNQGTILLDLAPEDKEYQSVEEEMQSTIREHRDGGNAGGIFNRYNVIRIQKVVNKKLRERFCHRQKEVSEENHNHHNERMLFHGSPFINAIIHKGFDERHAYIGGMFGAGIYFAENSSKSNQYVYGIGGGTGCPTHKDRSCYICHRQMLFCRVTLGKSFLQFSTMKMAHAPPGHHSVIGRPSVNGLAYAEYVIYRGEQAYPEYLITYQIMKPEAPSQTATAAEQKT
Kind of data set: Inhibition of human TNKS1 (1030 to 1317) using NAD substrate after 20 mins incubation by fluorescence assay.

Data set [5] has as its target T3, Protein mono-ADP-ribosyltransferase PARP10 (Homo sapiens, UniProt Q53GL7).
T3 sequence (Q53GL7 whole entry): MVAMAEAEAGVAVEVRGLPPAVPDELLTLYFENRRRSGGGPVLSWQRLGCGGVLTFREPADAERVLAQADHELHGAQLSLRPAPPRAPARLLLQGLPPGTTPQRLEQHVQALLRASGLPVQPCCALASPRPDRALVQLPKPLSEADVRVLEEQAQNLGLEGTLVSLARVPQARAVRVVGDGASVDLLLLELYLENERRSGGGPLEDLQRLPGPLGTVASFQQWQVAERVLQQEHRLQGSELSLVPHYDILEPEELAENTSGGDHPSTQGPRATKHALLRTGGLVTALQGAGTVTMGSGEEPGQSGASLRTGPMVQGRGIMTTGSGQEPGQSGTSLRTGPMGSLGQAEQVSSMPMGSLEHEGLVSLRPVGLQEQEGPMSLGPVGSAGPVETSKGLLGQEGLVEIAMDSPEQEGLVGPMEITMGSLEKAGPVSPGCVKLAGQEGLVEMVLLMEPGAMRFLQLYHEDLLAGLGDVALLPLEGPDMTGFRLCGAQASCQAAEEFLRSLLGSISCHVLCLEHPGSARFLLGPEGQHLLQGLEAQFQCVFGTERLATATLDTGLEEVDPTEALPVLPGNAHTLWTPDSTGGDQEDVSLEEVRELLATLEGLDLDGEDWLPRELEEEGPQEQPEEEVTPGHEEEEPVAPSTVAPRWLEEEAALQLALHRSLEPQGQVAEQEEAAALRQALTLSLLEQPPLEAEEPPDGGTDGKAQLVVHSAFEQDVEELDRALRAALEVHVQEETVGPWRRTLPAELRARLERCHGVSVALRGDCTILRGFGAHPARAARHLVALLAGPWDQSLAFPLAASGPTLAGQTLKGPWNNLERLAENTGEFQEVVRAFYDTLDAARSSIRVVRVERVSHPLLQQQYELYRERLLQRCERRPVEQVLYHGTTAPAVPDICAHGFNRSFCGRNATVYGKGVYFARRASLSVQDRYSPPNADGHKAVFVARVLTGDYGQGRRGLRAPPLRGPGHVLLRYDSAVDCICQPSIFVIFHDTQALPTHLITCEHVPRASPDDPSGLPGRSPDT
Kind of data set: Inhibition of human ARTD10 (809 to 1017) using 500 nM NAD substrate after 2.5 hrs incubation.

In another data set the test system is HEK293. Kind of data set: Cytotoxicity against HEK293 cells assessed as cell viability at 2.5 to 10 uM. The class given is cell-based. The following applies: human, hek293, 10 µM.
Data set [6] deals with T4, Protein mono-ADP-ribosyltransferase PARP15 (Homo sapiens, UniProt Q460N3).
T4 sequence (Q460N3 whole entry): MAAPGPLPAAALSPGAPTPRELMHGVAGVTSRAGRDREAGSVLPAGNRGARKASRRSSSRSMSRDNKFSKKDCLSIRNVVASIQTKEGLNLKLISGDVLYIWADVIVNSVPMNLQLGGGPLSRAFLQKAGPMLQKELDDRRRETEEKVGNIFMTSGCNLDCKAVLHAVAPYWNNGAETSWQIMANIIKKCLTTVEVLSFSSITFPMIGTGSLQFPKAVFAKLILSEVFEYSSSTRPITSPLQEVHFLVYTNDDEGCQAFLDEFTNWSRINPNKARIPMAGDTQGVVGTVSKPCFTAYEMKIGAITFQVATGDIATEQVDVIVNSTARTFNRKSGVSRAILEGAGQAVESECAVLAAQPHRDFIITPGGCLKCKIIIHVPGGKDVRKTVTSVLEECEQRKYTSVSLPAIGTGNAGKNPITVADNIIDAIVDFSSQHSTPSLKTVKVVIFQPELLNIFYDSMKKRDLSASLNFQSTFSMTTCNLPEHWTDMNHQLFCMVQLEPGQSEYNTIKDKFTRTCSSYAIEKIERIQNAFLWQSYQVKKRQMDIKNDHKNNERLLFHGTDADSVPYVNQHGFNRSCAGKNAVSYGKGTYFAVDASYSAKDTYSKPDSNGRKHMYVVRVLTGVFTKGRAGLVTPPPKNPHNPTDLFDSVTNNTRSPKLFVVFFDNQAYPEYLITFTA
Description: Inhibition of human ARTD7 (460 to 656) using 250 nM NAD substrate after 2 hrs incubation.

Where “and” joins values, the source holds several entries; their conditions need not be identical. Equal entries are not always repeated. Where only a bound is given, the exact number is not on record here.

The values below come from ChEMBL document CHEMBL3593161, “Discovery of potent and selective nonplanar tankyrase inhibiting nicotinamide mimics” (Bioorg Med Chem, 2015).

In general, IC50 refers to the point on the concentration scale where inhibition reaches its midpoint. A lower IC50 goes with inhibition by little substance. For `O=C1NC(c2cccc(OCc3ccccc3)c2)Nc2ccccc21` (stereo unspecified), the IC50 in data set [1] is 7.3 µM and 7.24 µM.
On the same count and under the same terms, next, `CCc1c(C)nc(N2CCN(c3ccccc3F)CC2)nc1O`: 0.72 µM and 0.724 µM; `O=C1NC(c2ccccc2Cl)Nc2ncccc21` (stereo unspecified): 140 µM; `O=C1NC(c2ccccc2Cl)Nc2ccccc21` (stereo unspecified): 31.2 µM.
On the same count and under the same terms, as for `COc1ccc(C2NC(=O)c3ccccc3N2)cc1` (stereo unspecified), the figure is 0.99 µM and 1 µM; as for `O=C1NC(c2ccc(Cl)cc2)Nc2ccccc21` (stereo unspecified), 0.41 µM and 0.417 µM.
Still for that read-out and setting: next, `CN1c2ncccc2C(=O)NC1c1ccc(NC(=O)C2CCOCC2)cc1` (stereo unspecified): 6.6 µM.
Regarding `CN1CCN(c2nc3c(c(=O)[nH]2)CCCC3)CC1`, the IC50 in data set [2] is 17 µM; in data set [3] it was 3.6 µM; in data set [4] it was 6.3 µM; in data set [5], greater than 10 µM; in data set [6], greater than 10 µM. In addition, the Activity result with HEK293 is given as “Non-toxic”.
As to `O=c1[nH]c(N2CCNCC2)nc2c1CCO2`, the half-inhibitory concentration (IC50) in data set [1] was greater than 100 µM.
Still for that read-out and setting: next, `O=C1NC(c2cccc(OCc3ccccc3)c2)Nc2ncccc21` (stereo unspecified): 230 µM.
Turning to `O=c1[nH]c(N2CCN(Cc3ccncc3)CC2)nc2c1CCCC2`, the concentration for half-maximal inhibition (IC50) in data set [2] was 33 µM; in data set [3], 4.2 µM; in data set [4], 0.37 µM; in data set [5], 5.4 µM; in data set [6] it was greater than 10 µM. Moreover, the Activity result in the data set on HEK293 is “Non-toxic”.
